# Legend:
# [1] = system: blackgrass; assay: Test Example 5: herbicidal effect by foliage application, plastic box (Table 20, symbol J); assay type: in vivo, blackgrass (Alopecurus myosuroides); conditions: foliage application; for herbicidal effect grade, J: blackgrass: 320 g/ha
# Outline: (§1)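 Plants were sown into sterilized diluvial soil under about 1.5 cm cover and kept in a greenhouse at 25° C. to 30° C. Fourteen days on, foliage received an even spray of the diluted emulsion. Herbicidal or crop effect was judged three weeks afterwards.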
# [2] = system: false cleavers; assay: Test Example 5: herbicidal effect by foliage application, plastic box (Table 20, symbol Q); assay type: in vivo, false cleavers (Galium spurium); conditions: foliage application; for herbicidal effect grade, Q: false cleavers: 320 g/ha
# Outline: as §1
# [3] = system: persian speedwell; assay: Test Example 5: herbicidal effect by foliage application, plastic box (Table 20, symbol R); assay type: in vivo, Persian speedwell (Veronica persica); conditions: foliage application; for herbicidal effect grade, R: persian speedwell: 320 g/ha
# Outline: as §1
# [4] = system: velvetleaf; assay: Test Example 5: herbicidal effect by foliage application, plastic box (Table 20, symbol M); assay type: in vivo, velvetleaf (Abutilon theophrasti); conditions: foliage application; for herbicidal effect grade, M: velvetleaf: 320 g/ha
# Outline: as §1
# [5] = system: chickweed; assay: Test Example 5: herbicidal effect by foliage application, plastic box (Table 20, symbol P); assay type: in vivo, common chickweed (Stellaria media); conditions: foliage application; for herbicidal effect grade, P: chickweed: 320 g/ha
# Outline: as §1
# [6] = system: wild oat; assay: Test Example 5: herbicidal effect by foliage application, plastic box (Table 20, symbol I); assay type: in vivo, wild oat (Avena fatua); conditions: foliage application; for herbicidal effect grade, I: wild oat: 320 g/ha
# Outline: as §1
# [7] = system: late watergrass; assay: Test Example 1: herbicidal activity, application before weed generation under submerged conditions (Table 16, symbol A); assay type: in vivo, late watergrass (Echinochloa oryzicola); conditions: 320 g/ha applied herbicide
# Outline: (§2)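 Alluvial soil was flooded to 4 cm depth, weed seeds were sown mixed and 2.5-leaf rice seedlings were transplanted. On sowing day, the compound's emulsion, diluted in water to a set dose, was applied to the water surface. Plants grew at 25–30 °C and were scored 0–5 after three weeks.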
# [8] = system: barnyard grass; assay: Test Example 5: herbicidal effect by foliage application, plastic box (Table 20, symbol H); assay type: in vivo, barnyard grass (Echinochloa crus-galli); conditions: foliage application; for herbicidal effect grade, H: barnyard grass: 320 g/ha
# Outline: as §1
# [9] = system: Japanese bulrush; assay: Test Example 1: herbicidal activity, application before weed generation under submerged conditions (Table 16, symbol B); assay type: in vivo, Japanese bulrush (Schoenoplectus juncoides); conditions: 320 g/ha applied herbicide
# Outline: as §2
# [10] = system: Chinese sprangletop; assay: Test Example 3: herbicidal effect by foliage application, Wagner pot (Table 18, symbol D); assay type: in vivo, chinese sprangletop (Leptochloa chinensis); conditions: for herbicidal effect on D (Chinese sprangletop), rating 0-5: 320 g/ha
# Outline: (§3)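 Plants were sown in alluvial soil held under 0.1–0.5 cm standing water and grown 14 days in a greenhouse at 25–30 °C. An emulsifiable formulation, water-diluted to the set dose, was then sprayed onto the foliage, and effects were scored three weeks later using previously defined criteria.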
# [11] = system: barnyard grass; assay: Test Example 3: herbicidal effect by foliage application, Wagner pot (Table 18, symbol H); assay type: in vivo, barnyard grass (Echinochloa crus-galli); conditions: for herbicidal effect on H (barnyard grass), rating 0-5: 320 g/ha
# Outline: as §3
# [12] = system: redroot pigweed; assay: Test Example 5: herbicidal effect by foliage application, plastic box (Table 20, symbol N); assay type: in vivo, redroot pigweed (Amaranthus retroflexus); conditions: foliage application; for herbicidal effect grade, N: redroot pigweed: 320 g/ha
# Outline: as §1
# [13] = system: Italian ryegrass; assay: Test Example 5: herbicidal effect by foliage application, plastic box (Table 20, symbol K); assay type: in vivo, Italian ryegrass (Lolium multiflorum); conditions: foliage application; for herbicidal effect grade, K: Italian ryegrass: 320 g/ha
# Outline: as §1
# [14] = system: rice flat sedge; assay: Test Example 3: herbicidal effect by foliage application, Wagner pot (Table 18, symbol E); assay type: in vivo, rice flat sedge (Cyperus iria); conditions: for herbicidal effect on E (rice flat sedge), rating 0-5: 320 g/ha
# Outline: as §3
# [15] = system: lambsquarters; assay: Test Example 5: herbicidal effect by foliage application, plastic box (Table 20, symbol O); assay type: in vivo, lambsquarters (Chenopodium album); conditions: foliage application; for herbicidal effect grade, O: lambsquarters: 320 g/ha
# Outline: as §1
# [16] = system: windgrass; assay: Test Example 5: herbicidal effect by foliage application, plastic box (Table 20, symbol L); assay type: in vivo, windgrass (Apera spica-venti); conditions: foliage application; for herbicidal effect grade, L: windgrass: 320 g/ha
# Outline: as §1
# [17] = system: green foxtail; assay: Test Example 5: herbicidal effect by foliage application, plastic box (Table 20, symbol G); assay type: in vivo, green foxtail (Setaria viridis); conditions: foliage application; for herbicidal effect grade, G: green foxtail: 320 g/ha
# Outline: as §1
# [18] = system: southern crabgrass; assay: Test Example 5: herbicidal effect by foliage application, plastic box (Table 20, symbol F); assay type: in vivo, southern crabgrass (Digitaria ciliaris); conditions: foliage application; for herbicidal effect grade, F: southern crabgrass: 320 g/ha
# Outline: as §1
# [19] = system: oval-leafed pondweed; assay: Test Example 1: herbicidal activity, application before weed generation under submerged conditions (Table 16, symbol C); assay type: in vivo, oval-leafed pondweed (Monochoria vaginalis); conditions: 320 g/ha applied herbicide
# Outline: as §2
# [20] = AAH 320 g/ha, three weeks after application
# [21] = AAH 320 g/ha, evaluated three weeks after application
# [22] = amount of applied herbicide 320 g/ha
SMILES,"herbicidal effect grade, J: blackgrass ([1]; three weeks after application)","herbicidal effect grade, Q: false cleavers ([2]; three weeks after application)","herbicidal effect grade, R: persian speedwell ([3]; three weeks after application)","herbicidal effect grade, M: velvetleaf ([4]; three weeks after application)","herbicidal effect grade, P: chickweed ([5]; three weeks after application)","herbicidal effect grade, I: wild oat ([6]; three weeks after application)",Herbicidal effect on A: late watergrass (grade 0-5) [7],"herbicidal effect grade, H: barnyard grass ([8]; three weeks after application)",Herbicidal effect on B: Japanese bulrush (grade 0-5) [9],"herbicidal effect on D (Chinese sprangletop), rating 0-5 [10]","herbicidal effect on H (barnyard grass), rating 0-5 [11]","herbicidal effect grade, N: redroot pigweed ([12]; three weeks after application)","herbicidal effect grade, K: Italian ryegrass ([13]; three weeks after application)","herbicidal effect on E (rice flat sedge), rating 0-5 [14]","herbicidal effect grade, O: lambsquarters ([15]; three weeks after application)","herbicidal effect grade, L: windgrass ([16]; three weeks after application)","herbicidal effect grade, G: green foxtail ([17]; three weeks after application)","herbicidal effect grade, F: southern crabgrass ([18]; three weeks after application)",Herbicidal effect on C: oval-leafed pondweed (grade 0-5) [19],other results
CCCCOc1ccccc1-c1sc2ccccc2c1-c1c(O)c(C)nn(C)c1=O [1-022],0 (Herbicidal rate of 5% or less (almost no effect)),4 (Herbicidal rate of 70% or more and less than 90%),5 (Herbicidal rate of 90% or more (almost completely withered)),0 (Herbicidal rate of 5% or less (almost no effect)),5 (Herbicidal rate of 90% or more (almost completely withered)),0 (Herbicidal rate of 5% or less (almost no effect)),2 (Herbicidal rate of 20% or more and less than 40%),3 (Herbicidal rate of 40% or more and less than 70%),3 (Herbicidal rate of 40% or more and less than 70%),0 (Herbicidal rate of 5% or less (almost no effect)),3 (Herbicidal rate of 40% or more and less than 70%),3 (Herbicidal rate of 40% or more and less than 70%),0 (Herbicidal rate of 5% or less (almost no effect)),4 (Herbicidal rate of 70% or more and less than 90%),0 (Herbicidal rate of 5% or less (almost no effect)),0 (Herbicidal rate of 5% or less (almost no effect)),0 (Herbicidal rate of 5% or less (almost no effect)),0 (Herbicidal rate of 5% or less (almost no effect)),,
CCCCCCOc1ccc(-c2sc3ccccc3c2-c2c(OC(=O)CCC)c(C)nn(C)c2=O)cc1 [1-029],0 (Herbicidal rate of 5% or less (almost no effect)),1 (Herbicidal rate of 5% or more and less than 20%),0 (Herbicidal rate of 5% or less (almost no effect)),2 (Herbicidal rate of 20% or more and less than 40%),5 (Herbicidal rate of 90% or more (almost completely withered)),0 (Herbicidal rate of 5% or less (almost no effect)),0 (Herbicidal rate of 5% or less (almost no effect)),0 (Herbicidal rate of 5% or less (almost no effect)),1 (Herbicidal rate of 5% or more and less than 20%),,,4 (Herbicidal rate of 70% or more and less than 90%),0 (Herbicidal rate of 5% or less (almost no effect)),,2 (Herbicidal rate of 20% or more and less than 40%),0 (Herbicidal rate of 5% or less (almost no effect)),0 (Herbicidal rate of 5% or less (almost no effect)),0 (Herbicidal rate of 5% or less (almost no effect)),2 (Herbicidal rate of 20% or more and less than 40%),
Cc1ccccc1C(=O)Oc1c(C)nn(C)c(=O)c1-c1c(-c2ccc3c(c2)OCCO3)sc2ccccc12 [1-093],,,,,,,3 (Herbicidal rate of 40% or more and less than 70%),,1 (Herbicidal rate of 5% or more and less than 20%),0 (Herbicidal rate of 5% or less (almost no effect)),3 (Herbicidal rate of 40% or more and less than 70%),,,5 (Herbicidal rate of 90% or more (almost completely withered)),,,,,0 (Herbicidal rate of 5% or less (almost no effect)),"J: blackgrass, herbicidal effect [1, 20]: 0 (Herbicidal rate of 5% or less (almost no effect)); Q: false cleavers, herbicidal effect [2, 20]: 0 (Herbicidal rate of 5% or less (almost no effect)); R: persian speedwell, herbicidal effect [3, 20]: 4 (Herbicidal rate of 70% or more and less than 90%); M: velvetleaf, herbicidal effect [4, 20]: 5 (Herbicidal rate of 90% or more (almost completely withered)); P: chickweed, herbicidal effect [5, 20]: 1 (Herbicidal rate of 5% or more and less than 20%); I: wild oat, herbicidal effect [6, 20]: 0 (Herbicidal rate of 5% or less (almost no effect)); H: barnyard grass, herbicidal effect [8, 20]: 0 (Herbicidal rate of 5% or less (almost no effect)); N: redroot pigweed, herbicidal effect [12, 20]: 3 (Herbicidal rate of 40% or more and less than 70%); K: Italian ryegrass, herbicidal effect [13, 20]: 0 (Herbicidal rate of 5% or less (almost no effect)); O: lambsquarters, herbicidal effect [15, 20]: 2 (Herbicidal rate of 20% or more and less than 40%); L: windgrass, herbicidal effect [16, 20]: 0 (Herbicidal rate of 5% or less (almost no effect)); G: green foxtail, herbicidal effect [17, 20]: 0 (Herbicidal rate of 5% or less (almost no effect)); F: southern crabgrass, herbicidal effect [18, 20]: 0 (Herbicidal rate of 5% or less (almost no effect))"
C=CCOc1cccc(-c2sc3ccc(F)cc3c2-c2c(O)c(C)nn(C)c2=O)c1 [2-269],,,,,,,3 (Herbicidal rate of 40% or more and less than 70%),,3 (Herbicidal rate of 40% or more and less than 70%),,,,,,,,,,3 (Herbicidal rate of 40% or more and less than 70%),"J: blackgrass, herbicidal effect (criteria 0-5) [1, 21]: 0 (Herbicidal rate of 5% or less (almost no effect)); Q: false cleavers, herbicidal effect (criteria 0-5) [2, 21]: 0 (Herbicidal rate of 5% or less (almost no effect)); R: persian speedwell, herbicidal effect (criteria 0-5) [3, 21]: 1 (Herbicidal rate of 5% or more and less than 20%); M: velvetleaf, herbicidal effect (criteria 0-5) [4, 21]: 0 (Herbicidal rate of 5% or less (almost no effect)); P: chickweed, herbicidal effect (criteria 0-5) [5, 21]: 3 (Herbicidal rate of 40% or more and less than 70%); I: wild oat, herbicidal effect (criteria 0-5) [6, 21]: 0 (Herbicidal rate of 5% or less (almost no effect)); H: barnyard grass, herbicidal effect (criteria 0-5) [8, 21]: 0 (Herbicidal rate of 5% or less (almost no effect)); herbicidal effect on D: Chinese sprangletop [10, 22]: 0 (Herbicidal rate of 5% or less (almost no effect)); herbicidal effect on H: barnyard grass [11, 22]: 3 (Herbicidal rate of 40% or more and less than 70%); N: redroot pigweed, herbicidal effect (criteria 0-5) [12, 21]: 0 (Herbicidal rate of 5% or less (almost no effect)); K: Italian ryegrass, herbicidal effect (criteria 0-5) [13, 21]: 0 (Herbicidal rate of 5% or less (almost no effect)); herbicidal effect on E: rice flat sedge [14, 22]: 3 (Herbicidal rate of 40% or more and less than 70%); O: lambsquarters, herbicidal effect (criteria 0-5) [15, 21]: 0 (Herbicidal rate of 5% or less (almost no effect)); L: windgrass, herbicidal effect (criteria 0-5) [16, 21]: 0 (Herbicidal rate of 5% or less (almost no effect)); G: green foxtail, herbicidal effect (criteria 0-5) [17, 21]: 0 (Herbicidal rate of 5% or less (almost no effect)); F: southern crabgrass, herbicidal effect (criteria 0-5) [18, 21]: 0 (Herbicidal rate of 5% or less (almost no effect))"

# Source: US20230085307A1, “PYRIDAZINONE COMPOUND AND HERBICIDE” (NISSAN CHEMICAL CORPORATION, priority 2019, published 2023)
